Test results from US20220325242A1, “IDH2 INHIBITION FOR PRODUCING T-CELLS AND B-CELLS WITH A MEMORY PHENOTYPE” (Universite de Lausanne, priority 2019, published 2022).

Tests used:
[1] = test system: human CD8+ T-cells from umbilical cord blood; assay: CD62L flow cytometry of human cord blood mononuclear cells (CBMC); type: cell-based
Method: Methods: Mononuclear Cells were isolated from fresh umbilical cord blood on a Percoll Gradient (CBMCs). 10^4 CBMC's were seeded per well in a round bottom 96-well plate in RPMI with 10% human serum, and activated with (magnetic) αCD3/CD28 at a 1:2 cell:bead ratio and 300 U/ml rhIL-2, in the presence of 5 μM AG221 or DMSO, or 1 μM MK2206 (AKT inhibitor). After 11 days of culture, CD62L expression was analyzed by flow cytometry on a fraction of the cells (FIG. 15A). The other cells were washed 2 times and placed in a magnet to remove the inhibitors and the αCD3/CD28 beads. The cells were then rested for 4 hours before restimulating them for 4 hours with 1 ng/ml Phorbol 12-Myristate 13-Acetate (PMA, a PKC activator) and 50 μg/ml Ionomycin (a Ca^2+ ionophore, activating NF-KB and NFAT) in the presence of 50 μ/ml golgi inhibitor (Brefeldin A, BFA), allowing for the measurement of intracellular accumulation of different cytokines by flow cytometry.

OT1 CD8+ T cells = assay: Extracellular flux analyses (XF-96 Seahorse) of OT1 CD8+ T cells; type: cell-based, mouse; details: day 7, compared to DMSO
Method: Example 2. In vitro culture of splenocytes comprising CD8+ T-cells. OT1 splenocytes (as described in Example 1) were cultured for 3 days at a concentration of 10^6 cells per mL in RPMI medium (Gibco 61870-01) supplemented with 10% FCS, (Gibco 10270-106), 1% Penicillin/Streptomycin (P/S; Gibco 15070-063), 0.1% 13-mercaptoethanol, 1% HEPES (Gibco 15630-080), 1× Non-essential amino acids (Gibco 11140-035), 1% L-glutamine (Gibco 25030-081), 1 mM Sodium Pyruvate (Gibco 11360-039), 100 U/m1 hIL-2 (Glaxo-IMB) and 1 μg/ml ovalbumin N4 peptide (SIINFEKL). To evaluate the effects of IDH2 inhibition on T-cell differentiation, 5 μM of a small molecule IDH2 inhibitor (AG221 or AGI6780) or a DMSO solvent control was added during this 3-day culture period. At day 3, a fraction of the splenocytes was collected and the remaining cells were cultured for 4 additional days with 100 U/ml hIL-2 and 10 ng/ml hIL-7 (Peprotech 200-07) supplementation after washing out the inhibitors and the ovalbumine N4 peptide (FIG. 1). At day 3 and day 7, the activation and differentiation state of CD8+ T-cells was determined by gene expression analysis, flow cytometry and extracellular metabolic flux analyses (see Example 3).
Real-time analysis of CD8^+ T cell oxygen consumption rate (OCR) was measured with an XF-96 Extracellular Flux Analyzer (Seahorse Bioscience) at day 7 of in vitro culture (FIG. 7). Measurements were performed while successively adding different drugs to the culture without any washing steps in between. Specifically, the measurements were performed under basal conditions, after addition of 1.25 μM oligomycin, a complex V inhibitor that blocks mitochondrial ATP synthase, after addition of 1 μM protonophore FCCP (fluoro-carbonyl cyanide phenylhydrazone) to uncouple ATP synthesis from oxygen consumption by the electron transport chain, after addition of 50 μM etomoxir to inhibit CPT1alpha, and thus fatty acid oxidation, and after addition of 100 nM rotenone and 1 μM antimycin A to inhibit the electron transport chain.
The basal OCR is the OCR measured in the absence of drugs. Addition of oligomycin allows to calculate the ATP-linked respiration by subtracting the oligomycin OCR from basal OCR. FCCP enables the electron transport chain (ETC) to reach its maximal rate, allowing to determine the cellular maximal respiratory capacity. Finally, rotenone and antimycin A inhibit the ETC which indicates the non-mitochondrial respiration. The spare respiratory capacity (SRC) is defined as the difference between basal OCR and maximal OCR obtained after FCCP addition.
In addition, the extracellular acidification rate (ECAR), which is an indicator for […], was measured using the same device under basal conditions. This allowed further calculating the OCR/ECAR ratio as indicator of basal mitochondrial activity.

[2] = test system: histone H3 (H3K4-3Me, H3K27-Ac) in OT1 T-cells; assay: Western blot of histone H3 modifications in OT1 T-cells; type: cell-based, mouse; details: day 7, 5 μM day 0-3, western blot, versus DMSO
Method: Methods: OT1 splenocytes were activated and cultured with 5 μM AG221 or DMSO as described in Example 2. After 3 days, the cells were washed and the IDH2 inhibitor was washed out as well. The cells were then cultured for an additional 4 days in the absence of AG221. At day 7, the cells were collected and washed once with PBS. 50′000 cells were collected for ATAC-seq while the remaining cell pellet was lysed in extraction buffer (20 mM Tris HCl, 150 mM NaCl, 1% Triton X-100, 10% glycerol, 5 mM EDTA) supplemented with Complete Mini protease inhibitor (Roche) for wester blotting.
For western blotting, an equal amount of protein (as measure by the BCA protein assay kit, Thermo Scientific) was size-separated on a 12.5% polyacrylamide gel and transferred to a 0.2 μm nitrocellulose membrane (Bio-Rad). The following antibodies were used: β-Actin (AC-74) from Sigma Aldrich, H3K4-trimethyl (C42D8) and H3K27-acetyl (D5E4) from Cell Signaling, and appropriate HRP-labelled secondary antibodies (Santa Cruz). The signal was visualized with ECLTM Select Western Blotting Detection Reagent from Sigma Aldrich or SuperSignal West Femto Maximum Sensitivity Substrate from Thermo Scientific and acquired by the Fusion FX from Vilber.

OT2 CD4 T cells = assay: CD62L flow cytometry of OT2 CD4 T cells activated by co-culture with dendritic cells; type: cell-based, mouse; details: 5 μM for 7 days, day 7, versus DMSO
Source text: A new experiment has been performed on mouse T cells in order to further strengthen our claim that IDH2 inhibition also promotes memory marker expression in CD4 T cells. As indicated in the experimental scheme (FIG. 17A), we activated CD4 T cells from OT2 mice by co-culture with dendritic cells. OT2 mice are transgenic for an αβTCR recognizing specifically a chicken ovalbumine peptide 323-339 associated with the mouse MHC class II molecule I-A^b. We activated OT2 CD4 T cells by co-culture with dendritic cells loaded with […] of the ovalbumine peptide in the presence of 100 IU/ml recombinant human IL2 in the presence of 5 μM AG221 or DMSO control. After 4 days, cells were collected, washed and split, and brought back in culture with 100 IU/ml rhIL2 and 5 μM AG221 or DMSO control.

## CC(C)(O)CNc1nc(Nc2ccnc(C(F)(F)F)c2)nc(-c2cccc(C(F)(F)F)n2)n1 [AG221, 2-methyl-1-[[4-[6-(trifluoromethyl)pyridin-2-yl]-6-[[2-(trifluoromethyl)pyridin-4-yl]amino]-1,3,5-triazin-2-yl]amino]propan-2-ol]
[1]; day 11, 5 μM, versus DMSO
  CD62L expression in human CD8+ T-cells: strong upregulation
[1]; day 11, AG221 5 μM, MK2206 1 μM, DMSO control about 35%
  CD8+ cells expressing CD62L: about 75%
OT1 CD8+ T cells
  OCR/ECAR ratio: unchanged
  basal oxygen consumption rate (OCR): significantly increased
  extracellular acidification rates (ECAR): unchanged
  maximal respiratory capacity: significantly increased
  spare respiratory capacity (SRC): significantly increased
[2]
  acetylation of lysine residue 27 of histone H3: increased
  trimethylation of lysine residue 4 of histone H3: increased
OT2 CD4 T cells
  CD62L-positive population of CD4 T cells: strong increase
